According to article PMC9496321, “6-Furopyridine Hexamethylene Amiloride Is a Non-Selective P2X7 Receptor Antagonist” (Biomolecules, 2022):
Values belong to the compound of their own block, whether it stands above or below them.

Assays:
[1] = molecular target: T1, endogenous hP2X7 (Homo sapiens, UniProt Q99572); assay: ATP-induced ethidium+ uptake in RPMI8226 multiple myeloma cells (flow cytometry); format: cell-based
T1 construct: endogenous in cells; host or cells: RPMI8226 cells
T1 sequence (Q99572 1-595): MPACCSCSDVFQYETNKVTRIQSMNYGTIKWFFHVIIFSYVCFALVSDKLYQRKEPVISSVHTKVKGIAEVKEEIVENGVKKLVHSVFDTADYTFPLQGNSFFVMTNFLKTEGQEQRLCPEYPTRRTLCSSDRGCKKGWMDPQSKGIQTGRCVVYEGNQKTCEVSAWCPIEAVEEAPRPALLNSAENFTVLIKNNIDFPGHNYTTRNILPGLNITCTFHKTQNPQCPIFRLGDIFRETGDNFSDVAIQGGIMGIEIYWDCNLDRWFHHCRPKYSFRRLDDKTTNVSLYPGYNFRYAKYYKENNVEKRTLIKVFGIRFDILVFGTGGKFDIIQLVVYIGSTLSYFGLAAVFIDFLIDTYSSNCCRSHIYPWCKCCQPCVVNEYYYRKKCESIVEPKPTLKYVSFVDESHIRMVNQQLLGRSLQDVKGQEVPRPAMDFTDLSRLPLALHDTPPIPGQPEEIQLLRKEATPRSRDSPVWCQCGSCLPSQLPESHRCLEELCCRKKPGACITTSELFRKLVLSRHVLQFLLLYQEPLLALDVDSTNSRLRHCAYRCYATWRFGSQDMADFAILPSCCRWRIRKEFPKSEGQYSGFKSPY

[2] = molecular target: T2, hP2X7 (Homo sapiens, UniProt Q99572); assay: ATP-induced ethidium+ uptake in stably transfected HEK-hP2X7 cells (flow cytometry); format: cell-based; conditions: for EC50: EC50 of ATP; for maximum ATP response, ethidium+ uptake: increasing ATP
T2 construct: expressed in transfected cells; host or cells: HEK293 cells, stably transfected (HEK-hP2X7)
T2 sequence (Q99572 1-595): T1 sequence (Q99572 1-595)

[3] = molecular target: T2, hP2X7; assay: Fura-2AM Ca2+ response assay in HEK-hP2X7 cells; format: cell-based; conditions: for EC50: EC50 of ATP; for maximum ATP response, Ca2+: increasing ATP
[4] = tested on: P2X7-mediated CD23 shedding; assay: CD23 shedding assay in RPMI8226 cells; format: cell-based, human
Protocol: CD23 shedding from RPMI8226 cells was conducted as described, except using LDM. Briefly, 1 × 10^6 cells in LDM were added to individual tubes and pre-incubated in the absence or presence of compound (or vehicle) (37 °C, 15 min). […] Cells were stained in the absence or presence of anti-CD23 mAb with 7AAD (on ice, 30 min, dark), washed once with D-PBS and data were collected using an LSR Fortessa X-20 flow cytometer. CD23 MFI on live cells was determined using FlowJo, with CD23 expression defined as the difference in MFI between cells stained in the presence or absence of anti-CD23 mAb. ATP-induced shedding was normalised to the maximal ATP-induced response in each experiment.

[5] = molecular target: T3, cP2X7 (Canis lupus familiaris, UniProt B0FLR1); assay: ATP-induced ethidium+ uptake in transfected HEK-cP2X7 cells; format: cell-based, canine
T3 sequence (B0FLR1 1-595): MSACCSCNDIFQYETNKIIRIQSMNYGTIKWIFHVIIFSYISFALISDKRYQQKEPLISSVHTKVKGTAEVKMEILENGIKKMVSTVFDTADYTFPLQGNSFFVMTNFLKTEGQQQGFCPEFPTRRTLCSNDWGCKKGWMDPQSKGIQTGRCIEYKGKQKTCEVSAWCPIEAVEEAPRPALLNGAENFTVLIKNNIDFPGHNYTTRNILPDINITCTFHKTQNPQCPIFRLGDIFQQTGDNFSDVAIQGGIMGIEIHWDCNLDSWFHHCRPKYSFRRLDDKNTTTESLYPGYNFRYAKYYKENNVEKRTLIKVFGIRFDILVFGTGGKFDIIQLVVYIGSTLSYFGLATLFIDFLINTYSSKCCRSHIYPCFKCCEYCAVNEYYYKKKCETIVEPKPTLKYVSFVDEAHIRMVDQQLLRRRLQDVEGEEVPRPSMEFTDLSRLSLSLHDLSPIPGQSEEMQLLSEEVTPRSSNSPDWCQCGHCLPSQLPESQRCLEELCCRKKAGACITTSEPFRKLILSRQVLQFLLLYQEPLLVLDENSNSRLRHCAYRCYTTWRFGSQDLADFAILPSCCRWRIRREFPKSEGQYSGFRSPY
Protocol: HEK293 cells were plated at 3.5 × 10^5 cells/well in 2 mL of complete DMEM/F12 medium and incubated (37 °C, 95% air/5% CO2, overnight). Cells were transfected with mP2X7-GFP (HEK-mP2X7), cP2X7-GFP (HEK-cP2X7) or hP2X4-EmGFP (HEK-hP2X4) plasmids, or mock transfected with an equivalent volume of sterile Milli-Q water (Merck Millipore, Burlington, NJ, USA), using Lipofectamine 3000 according to the manufacturer’s instructions. Cells were used for assays 48 h post-transfection. To determine transfection efficiency, cells were washed twice with D-PBS and data collected with an LSR Fortessa X-20 flow cytometer (BD Biosciences). The proportion of GFP positive cells was determined using FlowJo software v8.7.1 (BD Biosciences).
ATP-mediated uptake assays were conducted as described with either ethidium bromide or YO-PRO-1 iodide. Briefly, RPMI8226, HEK-hP2X7, HEK-mP2X7, HEK-cP2X7 or cryopreserved human peripheral blood mononuclear cells (PBMCs) were washed thrice with LDM (300× g, 5 min), resuspended in LDM and 1 × 10^6 cells were added to individual tubes. Cells were pre-incubated in the absence of compound (37 °C, 5 min) or in the presence of compound or vehicle (DMSO) (37 °C, 15 min) as indicated. […] An equal volume of ice-cold Mg^2+ stop solution was added and cells centrifuged (300× g, 5 min). Cells were washed twice in LDM (300× g, 5 min), resuspended and data were collected with an LSR Fortessa X-20 flow cytometer. MFI of ethidium^+ or YO-PRO-1^2+ was determined using FlowJo.

[6] = read-out: IC50, hP2X7-mediated dye uptake

SMILES: Nc1ncnc2c1ncn2[C@@H]1O[C@H](COP(=O)(O)OP(=O)(O)OP(=O)(O)O)[C@@H](O)[C@H]1O [ATP, adenosine 5′-triphosphate]
- EC50 ([1]; RPMI8226 cells, no antagonist): 311 ± 21 µM
- EC50 ([2]; ethidium+ uptake, HEK-hP2X7 cells, no antagonist (Figure 2C)): 466 ± 17 µM
- EC50 ([2]; ethidium+ uptake, in presence of 0.3 μM 6-FPHMA): 464 ± 52 µM
- EC50 ([2]; ethidium+ uptake, in presence of 3 μM 6-FPHMA): 517 ± 49 µM
- EC50 ([2]; ethidium+ uptake, in presence of 30 μM 6-FPHMA): 557 ± 47 µM
- EC50 ([2]; ethidium+ uptake, pre-incubated with DMSO vehicle (Figure 2E)): 419 ± 24 µM
- EC50 ([3]; Ca2+ response, HEK-hP2X7 cells, no antagonist (Figure 2F), AUC 100-180 s): 722 ± 76 µM
- EC50 ([3]; Ca2+ response, in presence of 0.3 μM 6-FPHMA): 526 ± 131 µM
- EC50 ([3]; Ca2+ response, in presence of 3 μM 6-FPHMA): 857 ± 317 µM
- EC50 ([3]; Ca2+ response, in presence of 30 μM 6-FPHMA): 691 ± 151 µM
- EC50 ([3]; Ca2+ response, pre-incubated with DMSO vehicle (Figure 2H)): 526 ± 127 µM
- EC50 ([4]; Homo sapiens, RPMI-8226, read-out: EC50 of ATP, CD23 shedding, RPMI8226 cells): 112 ± 28 µM
- ATP concentration giving maximal CD23 shedding ([4]; RPMI8226 cells): 200 µM
- EC50 [5]: 424 ± 67 µM
- ATP concentration giving maximum response, ethidium+ uptake ([5]; HEK-cP2X7 cells): 2 mM

- blockade of hP2X7-mediated dye uptake ([1]; 30 μM compound, 300 μM ATP, RPMI8226 cells): 100%
- IC50 [1, 6]: 0.58 ± 0.05 µM
- maximum ATP response, ethidium+ uptake ([2]; 0.3 μM 6-FPHMA): 90 ± 4%
- maximum ATP response, ethidium+ uptake ([2]; 3 μM 6-FPHMA): 52 ± 3%
- maximum ATP response, ethidium+ uptake ([2]; 30 μM 6-FPHMA): 13 ± 1%
- blockade of hP2X7-mediated dye uptake ([2]; 100 μM compound, 450 μM ATP, HEK-hP2X7 cells): 95%
- mode of inhibition ([2]; ethidium+ uptake, HEK-hP2X7 cells): non-competitive
- IC50 [2, 6]: 1.63 ± 0.42 µM
- maximum ATP response, Ca2+ ([3]; 0.3 μM 6-FPHMA): 54 ± 7%
- maximum ATP response, Ca2+ ([3]; 3 μM 6-FPHMA): 43 ± 6%
- maximum ATP response, Ca2+ ([3]; 30 μM 6-FPHMA): 5 ± 1%
- blockade of hP2X7-mediated Ca2+ responses ([3]; 30 μM compound, 720 μM ATP): 100%
- mode of inhibition ([3]; Ca2+ response, HEK-hP2X7 cells): non-competitive
- IC50 ([3]; read-out: IC50, hP2X7-mediated Ca2+ responses): 0.46 ± 0.14 µM
- IC50 ([4]; Homo sapiens, RPMI-8226, read-out: IC50, ATP-induced CD23 shedding): 2.3 ± 0.5 µM
- IC50 ([5]; read-out: IC50, cP2X7-mediated dye uptake): 1.28 ± 0.47 µM
- inhibition at 30 µM ([5]; read-out: blockade of cP2X7-mediated dye uptake): 100%
SMILES: N=C(N)NC(=O)c1nc(-c2cc3cnccc3o2)c(N2CCCCCC2)nc1N [6-FPHMA, 6-furopyridine-substituted 5-(N,N-hexamethylene) amiloride]
- blockade of ATP-induced CD23 shedding ([4]; 30 μM compound, 200 μM ATP): 97%
